Laboratory results reported in US20240317727A1 (Duke University, priority 2018, published 2024).
Like-named read-outs stand apart in the source and are kept apart here.

Experiments:
[1] = biological target: T1, purified recombinant human HSF1 (HSF1 DNA binding domain) (Homo sapiens, UniProt Q00613); assay: Melting temperature of HSF1 DBD with HSF1 degrader compounds (Sypro orange); settings: read-out: ΔTm (° C.)
T1 sequence (Q00613 15-120): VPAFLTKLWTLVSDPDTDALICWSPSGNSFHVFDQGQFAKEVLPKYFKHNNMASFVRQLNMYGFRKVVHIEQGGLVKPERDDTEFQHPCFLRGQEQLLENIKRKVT
Procedure: The melting temperature (ΔTm) for purified recombinant human HSF1 (HSF1 DNA binding domain) was determined in the presence of HSF1 degrader compounds shown in Table 5 and compared to the solvent DMSO. Sypro orange dye was added to the HSF1 DBD (5 micromolar final concentration) in buffer, mixed and distributed to wells in 384 well microtiter plates. HSF1 degrader compound (12.5 micromolar) or DMSO solvent was added to three replicate wells per compound concentration, mixed and plates loaded into a Quant Studio thermnocycler and run on a temperature gradient from 25° C. to 85° C. with increments of 0.5° C. steps. Melting curves were obtained and analyzed using the ThermnoFisher Shift Software 1.4 fitted with a Boltzmann equation to determine the change in melting temperature of the protein in the presence of DMSO as compared to compound. The difference in the melting temperature under these two conditions was assigned as the change in melting temperature of ΔTm.

[2] = test system: C4-2 prostate cancer cells; assay: C4-2 cell proliferation, Cell Titre Glo; type: cell-based; settings: Homo sapiens, 48-hour period, 9-point dilution series, read-out: Cell Viability IC50
Procedure: Next, cell viability of C4-2 prostate cancer cells was determined. C4-2 prostate cancer cells were grown in RMPI-1640 (no L-glutamine, Gibco 21870076) supplemented with 10% fetal bovine […] (non-heat-inactivated, Cytiva Hyclone SH30071.03). […] A 9-point dilution series was used to assess the ability of each compound to inhibit the growth of C4-2 prostate cancer cells over a 48-hour period, as compared to negative control solvent, DMSO. Cell proliferation was measured by the Cell Titre Glo assay using 384 well microtiter plate reader to quantitate luminescence. The IC50 was determined from the values obtained.

[3] = biological target: T2, recombinant HSF1 DNA-binding domain (DBD) (Homo sapiens, UniProt Q00613); assay: Differential Scanning Fluorimetry (DSF), HSF1 DBD melting temperature; settings: Table 3; 5 μM HSF1 DBD, 25PM Compound; positive = stabilizes, negative = destabilizes HSF1
T2 sequence (Q00613 15-120): T1 sequence (Q00613 15-120)

[4] = 12.5 micromolar compound, 5 micromolar HSF1 DBD, compared to DMSO

Row | Compound | ΔTm at 12.5 µM [1, 4] | IC50 [2] | ΔTm at 12.5 µM [1] | ΔTm at 25 µM [3]
1 | N#Cc1ccc(NC(=O)Nc2ccc(C#N)c(C(F)(F)F)c2)cc1C(F)(F)F [Compound 252, 1,3-bis(4-cyano-3-(trifluoromethyl)phenyl)urea] | – | 2.08 µM | 1.33 °C | –
2 | N#Cc1ccc(NC(=O)Nc2ccc(F)cc2)cc1C(F)(F)F [Compound 254, 1-(4-cyano-3-(trifluoromethyl)phenyl)-3-(4-fluorophenyl)urea] | – | 4.02 µM | 1.84 °C | –
3 | CN(C)CCc1cc(NC(=O)Nc2ccc(Cl)c(S(=O)(=O)C(F)(F)F)c2)ccc1C#N [Compound 284, 1-(4-chloro-3-((trifluoromethyl)sulfonyl)phenyl)-3-(4-cyano-3-(2-(dimethylamino)ethyl)phenyl)urea] | – | > 10 µM | 0.62 °C | –
4 | N#Cc1ccc(NC(=O)Nc2ccc(Cl)c(S(=O)(=O)C(F)(F)F)c2)cc1CN1CCOCC1 [Compound 285, 1-(4-chloro-3-((trifluoromethyl)sulfonyl)phenyl)-3-(4-cyano-3-(morpholinomethyl)phenyl)urea] | – | 4.81 µM | 1.23 °C | -7.52 °C
5 | N#Cc1ccc(NC(=O)Nc2ccc(Cl)c(S(=O)(=O)C(F)(F)F)c2)cc1CCN1CCOCC1 [Compound 286, 1-(4-chloro-3-((trifluoromethyl)sulfonyl)phenyl)-3-(4-cyano-3-(2-morpholinoethyl)phenyl)urea] | – | 5.95 µM | 1.64 °C | -6.23 °C
6 | N#Cc1ccc(NC(=O)Nc2ccc(CN3CCOCC3)c(S(=O)(=O)C(F)(F)F)c2)cc1 [Compound 288, 1-(4-cyanophenyl)-3-(4-(morpholinomethyl)-3-((trifluoromethyl)sulfonyl)phenyl)urea] | – | 8.9 µM | 2.24 °C | 3.27 °C
7 | CN(C)CCc1cc(NC(=O)Nc2ccc3c(c2)S(=O)(=O)C=C3)ccc1C#N [Compound 290, 1-(4-cyano-3-(2-(dimethylamino)ethyl)phenyl)-3-(1,1-dioxidobenzo[b]thiophen-6-yl)urea] | – | > 10 µM | -0.3 °C | 3.28 °C
8 | N#Cc1ccc(NC(=O)Nc2ccc3c(c2)S(=O)(=O)C=C3)cc1CN1CCOCC1 [Compound 291, 1-(4-cyano-3-(morpholinomethyl)phenyl)-3-(1,1-dioxidobenzo[b]thiophen-6-yl)urea] | – | > 10 µM | -0.44 °C | -4.4 °C
9 | N#Cc1ccc(NC(=O)Nc2ccc3c(c2)S(=O)(=O)C=C3)cc1CCN1CCOCC1 [Compound 292, 1-(4-cyano-3-(2-morpholinoethyl)phenyl)-3-(1,1-dioxidobenzo[b]thiophen-6-yl)urea] | – | > 10 µM | -0.76 °C | 3.33 °C
10 | N#Cc1ccc(NC(=O)Nc2ccc(Cl)c(S(=O)(=O)C(F)(F)F)c2)cc1OCCN1CCOCC1 [Compound 293, 1-(4-chloro-3-((trifluoromethyl)sulfonyl)phenyl)-3-(4-cyano-3-(2-morpholinoethoxy)phenyl)urea] | – | 6.05 µM | 1.13 °C | -4.19 °C
11 | N#Cc1ccc(NC(=O)Nc2ccc(OCCN3CCOCC3)c(S(=O)(=O)C(F)(F)F)c2)cc1 [Compound 294, 1-(4-cyanophenyl)-3-(4-(2-morpholinoethoxy)-3-((trifluoromethyl)sulfonyl)phenyl)urea] | – | 9.82 µM | 2.24 °C | -9.02 °C
12 | N#Cc1ccc(NC(=O)Nc2ccc3c(c2)S(=O)(=O)C=C3)cc1OCCN1CCOCC1 [Compound 295, 1-(4-cyano-3-(2-morpholinoethoxy)phenyl)-3-(1,1-dioxidobenzo[b]thiophen-6-yl)urea] | – | > 10 µM | -0.03 °C | –
13 | CN(C)CCc1cc(C#N)ccc1NC(=O)Nc1ccc(Cl)c(S(=O)(=O)C(F)(F)F)c1 [Compound 296, 1-(4-chloro-3-((trifluoromethyl)sulfonyl)phenyl)-3-(4-cyano-2-(2-(dimethylamino)ethyl)phenyl)urea] | – | > 10 µM | 0.43 °C | -5.21 °C
14 | N#CC1CCC(NC(=O)Nc2ccc(Cl)c(C(F)(F)F)c2)CC1 (stereo not shown) [Compound 300, 1-(4-chloro-3-(trifluoromethyl)phenyl)-3-(4-cyanocyclohexyl)urea] | – | > 10 µM | -0.73 °C | –

Now from value to compound, other results behind:

Row | ΔTm at 12.5 µM [1, 4] | IC50 [2] | Compound | ΔTm at 12.5 µM [1] | ΔTm at 25 µM [3]
15 | 2.63 °C | 5.57 µM | COc1cc(NC(=O)Nc2ccc(Cl)c([N+](=O)[O-])c2)ccc1C#N [Compound 241, 1-(4-chloro-3-nitrophenyl)-3-(4-cyano-3-methoxyphenyl)urea] | – | –
16 | 3.23 °C | > 10 µM | N#Cc1ccc(NC(=O)Nc2ccc3occc3c2)cc1 [Compound 246, 1-(benzofuran-5-yl)-3-(4-cyanophenyl)urea] | – | –
17 | 2.95 °C | 3.24 µM | COc1cc(NC(=O)Nc2ccc(Cl)c(S(=O)(=O)C(F)(F)F)c2)ccc1C#N [Compound 248, 1-(4-chloro-3-((trifluoromethyl)sulfonyl)phenyl)-3-(4-cyano-3-methoxyphenyl)urea] | – | –
18 | 1.5 °C | 4.56 µM | COc1cc(NC(=O)Nc2ccc3c(c2)S(=O)(=O)C=C3)ccc1C#N [Compound 249, 1-(4-cyano-3-methoxyphenyl)-3-(1,1-dioxidobenzo[b]thiophen-6-yl)urea] | – | –
19 | 1.3 °C | > 10 µM | COc1cc(NC(=O)Nc2ccc3nsnc3c2)ccc1C#N [Compound 250, 1-(benzo[c][1,2,5]thiadiazol-5-yl)-3-(4-cyano-3-methoxyphenyl)urea] | – | –
20 | 2.06 °C | > 10 µM | COc1cc(NC(=O)Nc2ccc3occc3c2)ccc1C#N [Compound 251] | – | –
21 | 1.91 °C | > 10 µM | N#Cc1ccc(NC(=O)Nc2ccc(C#N)cc2)cc1 [Compound 253, 1,3-bis(4-cyanophenyl)urea] | – | –
22 | 2.22 °C | > 10 µM | N#Cc1ccc(NC(=O)Nc2ccc(F)cc2)cc1 [Compound 255, 1-(4-cyanophenyl)-3-(4-fluorophenyl)urea] | – | –
23 | 1.06 °C | 2.29 µM | Cc1cc(NC(=O)Nc2ccc3c(c2)S(=O)(=O)C=C3)ccc1C#N [Compound 261, 1-(4-cyano-3-methylphenyl)-3-(1,1-dioxidobenzo[b]thiophen-6-yl)urea] | – | –
24 | 1.27 °C | 2.65 µM | CC(C)(C)c1cc(NC(=O)Nc2ccc3c(c2)S(=O)(=O)C=C3)ccc1C#N [Compound 264, 1-(3-(tert-butyl)-4-cyanophenyl)-3-(1,1-dioxidobenzo[b]thiophen-6-yl)urea] | – | –
25 | -0.19 °C | > 10 µM | N#Cc1cccc(NC(=O)Nc2ccc3c(c2)S(=O)(=O)C=C3)n1 [Compound 267, 1-(6-cyanopyridin-2-yl)-3-(1,1-dioxidobenzo[b]thiophen-6-yl)urea] | – | –
26 | 0.39 °C | 7.79 µM | N#Cc1cnc(NC(=O)Nc2ccc3c(c2)S(=O)(=O)C=C3)cn1 [Compound 268, 1-(5-cyanopyrazin-2-yl)-3-(1,1-dioxidobenzo[b]thiophen-6-yl)urea] | – | –
27 | 0.77 °C | > 10 µM | N#Cc1ncc(NC(=O)Nc2ccc3c(c2)S(=O)(=O)C=C3)cn1 [Compound 269] | – | –
28 | 0.01 °C | > 10 µM | N#Cc1cnc(NC(=O)Nc2ccc3c(c2)S(=O)(=O)C=C3)nc1 [Compound 270, 1-(5-cyanopyrimidin-2-yl)-3-(1,1-dioxidobenzo[b]thiophen-6-yl)urea] | – | –
29 | 0.02 °C | > 10 µM | N#Cc1ccc(NC(=O)Nc2ccc3c(c2)C=CS3(=O)=O)o1 [Compound 271, 1-(5-cyanofuran-2-yl)-3-(1,1-dioxidobenzo[b]thiophen-5-yl)urea] | – | –
30 | -2.3 °C | 5.65 µM | N#Cc1ccc(NC(=O)Nc2ccc3c(c2)S(=O)(=O)c2ccccc2-3)cc1 [Compound 277, 1-(4-cyanophenyl)-3-(5,5-dioxidodibenzo[b,d]thiophen-3-yl)urea] | – | –
31 | 1.29 °C | > 10 µM | N#Cc1ccc(NC(=O)Nc2ccc3c(c2)S(=O)(=O)CCC3)cc1 [Compound 279] | – | –
32 | 0.1 °C | > 10 µM | N#Cc1ccc(NC(=O)Nc2ccc3c(c2)C(=O)CC3)cc1 [Compound 283, 1-(4-cyanophenyl)-3-(3-oxo-2,3-dihydro-1H-inden-5-yl)urea] | – | –
33 | 2.6 °C | 8.91 µM | N#Cc1ccc(NC(=O)Nc2ccc(CCN3CCOCC3)c(S(=O)(=O)C(F)(F)F)c2)cc1 [Compound 289, 1-(4-cyanophenyl)-3-(4-(2-morpholinoethyl)-3-((trifluoromethyl)-sulfonyl)phenyl)urea] | – | 3.2 °C
